Results from PubChem BioAssay (NCI).
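Test compounds were applied to cells in 96-well plates for 48 hours at 5 doses. GI50 is the concentration that inhibits growth by half. TGI: concentration producing complete growth inhibition.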

Tests used:
Assay in all cases: DTP human tumour cell line panel, 48 h
[1] = tested on: HT29 colon
[2] = tested on: HOP-62 NSCLC
[3] = tested on: CAKI-1 renal
[4] = tested on: SK-MEL-5 melanoma
[5] = tested on: OVCAR-3 ovarian
[6] = tested on: T-47D breast
[7] = tested on: HCT-116 colon
[8] = tested on: UACC-62 melanoma
[9] = tested on: EKVX NSCLC
[10] = tested on: LOX IMVI melanoma
[11] = tested on: PC-3 prostate
[12] = tested on: MALME-3M melanoma
[13] = tested on: NCI-H23 lung
[14] = tested on: TK-10 renal
[15] = tested on: HS 578T breast
[16] = tested on: NCI-H522 lung
[17] = tested on: NCI-H226 lung
[18] = tested on: SF-268 CNS
[19] = tested on: KM12 colon
[20] = tested on: U251 CNS
[21] = tested on: UO-31 renal
[22] = tested on: DU-145 prostate
[23] = tested on: K-562 leukemia
[24] = tested on: SK-OV-3 ovarian
[25] = tested on: HOP-92 NSCLC
[26] = tested on: SR leukemia
[27] = tested on: M14 melanoma
[28] = tested on: IGROV1 ovarian
[29] = tested on: MOLT-4 leukemia
[30] = tested on: SF-295 CNS
[31] = tested on: SF-539 CNS
[32] = tested on: OVCAR-8 ovarian
[33] = tested on: NCI/ADR-RES ovarian
[34] = tested on: OVCAR-5 ovarian
[35] = tested on: RPMI-8226 leukemia
[36] = tested on: RXF 393 renal
[37] = tested on: BT-549 breast
[38] = tested on: SK-MEL-28 melanoma
[39] = tested on: OVCAR-4 ovarian
[40] = tested on: A498 renal
[41] = tested on: COLO 205 colon
[42] = tested on: HCC-2998 colon
[43] = tested on: A549 NSCLC
[44] = tested on: ACHN renal
[45] = tested on: SN12C renal
[46] = tested on: SK-MEL-2 melanoma
[47] = tested on: SW-620 colon
[48] = tested on: MCF7 breast
[49] = tested on: UACC-257 melanoma
[50] = tested on: SNB-19 CNS
[51] = tested on: SNB-75 CNS
[52] = tested on: MDA-MB-231 breast
[53] = tested on: HL-60(TB) leukemia
[54] = tested on: HCT-15 colon
[55] = tested on: MDA-MB-435
[56] = tested on: CCRF-CEM leukemia
[57] = tested on: NCI-H460 lung
[58] = tested on: 786-0 renal

## O=C1/C(=C/c2ccccc2[N+](=O)[O-])Oc2ccc(O)cc21
[1]
  GI50: 2.83 µM
  TGI: 11.3 µM
[2]
  GI50: 7 µM
  TGI: 38.9 µM
[3]
  GI50: 1.62 µM
  TGI: 3.83 µM
[4]
  GI50: 8.89 µM
  TGI: 22 µM
[5]
  GI50: 1.9 µM
  TGI: 3.88 µM
[6]
  GI50: 2.84 µM
  TGI: 19.4 µM
[7]
  GI50: 1.75 µM
  TGI: 4.17 µM
[8]
  GI50: 2.26 µM
  TGI: 6.2 µM
[9]
  GI50: 3.77 µM
  TGI: 14.8 µM
[10]
  GI50: 1.61 µM
  TGI: 3.36 µM
[11]
  GI50: 3.08 µM
  TGI: 14.2 µM
[12]
  GI50: 2.08 µM
  TGI: 5.85 µM
[13]
  GI50: 2.1 µM
  TGI: 5.17 µM
[14]
  GI50: 3.2 µM
  TGI: 7.7 µM
[15]
  GI50: 1.9 µM
  TGI: 6.35 µM
[16]
  GI50: 2.08 µM
  TGI: 4.83 µM
[17]
  GI50: 1.73 µM
  TGI: 4.77 µM
[18]
  GI50: 6.32 µM
  TGI: 35.9 µM
[19]
  GI50: 4.38 µM
  TGI: 16.4 µM
[20]
  GI50: 2.77 µM
  TGI: 11.1 µM
[21]
  GI50: 1.95 µM
  TGI: 6.86 µM
[22]
  GI50: 2.26 µM
  TGI: 5.38 µM
[23]
  GI50: 2.84 µM
  TGI: > 100 µM
[24]
  GI50: 15.3 µM
  TGI: 62.1 µM
[25]
  GI50: 2.24 µM
  TGI: 9.33 µM
[26]
  GI50: 2.69 µM
  TGI: > 100 µM
[27]
  GI50: 2.02 µM
  TGI: 4.99 µM
[28]
  GI50: 1.62 µM
  TGI: 6.18 µM
[29]
  GI50: 3.29 µM
  TGI: > 100 µM
[30]
  GI50: 4.11 µM
  TGI: 15.4 µM
[31]
  GI50: 2.16 µM
  TGI: 5.61 µM
[32]
  GI50: 2.86 µM
  TGI: > 100 µM
[33]
  GI50: 2.47 µM
  TGI: 7.36 µM
[34]
  GI50: 2.21 µM
  TGI: 5.72 µM
[35]
  GI50: 2.4 µM
  TGI: 7.56 µM
[36]
  GI50: 1.8 µM
  TGI: 3.61 µM
[37]
  GI50: 3.16 µM
  TGI: 12.5 µM
[38]
  GI50: 2.37 µM
  TGI: 6.08 µM
[39]
  GI50: 2.58 µM
  TGI: 9.58 µM
[40]
  GI50: 2 µM
  TGI: 16.9 µM
[41]
  GI50: 2.19 µM
  TGI: 5.88 µM
[42]
  GI50: 2.74 µM
  TGI: 7.94 µM
[43]
  GI50: 4.83 µM
  TGI: 26 µM
[44]
  GI50: 2.42 µM
  TGI: 8.98 µM
[45]
  GI50: 2.52 µM
  TGI: 7.68 µM
[46]
  GI50: 3.23 µM
  TGI: 15.1 µM
[47]
  GI50: 1.66 µM
  TGI: 4.12 µM
[48]
  GI50: 1.73 µM
  TGI: 5.52 µM
[49]
  GI50: 4.33 µM
  TGI: 38.3 µM
[50]
  GI50: 5.24 µM
  TGI: 19 µM
[51]
  GI50: 1.44 µM
  TGI: 42.4 µM
[52]
  GI50: 2.6 µM
  TGI: 9.46 µM
[53]
  GI50: 2.99 µM
  TGI: 9.91 µM
[54]
  GI50: 1.85 µM
  TGI: 5.47 µM
[55]
  GI50: 2.66 µM
  TGI: 7.52 µM
[56]
  GI50: 2.81 µM
  TGI: > 100 µM
[57]
  GI50: 3.09 µM
  TGI: 10.1 µM

## COc1ccc([C@H]2[C@H](O)C(=O)N2c2cc(OC)c(OC)c(OC)c2)cc1
[1]
  GI50: < 0.01 µM
[2]
  GI50: < 0.0199 µM
  TGI: > 100 µM
[3]
  GI50: < 0.01 µM
  TGI: > 100 µM
[4]
  GI50: < 0.01 µM
  TGI: 0.0387 µM
[5]
  GI50: < 0.01 µM
  TGI: 0.12 µM
[6]
  GI50: > 100 µM
  TGI: > 100 µM
[7]
  GI50: < 0.01 µM
  TGI: > 100 µM
[8]
  GI50: < 0.01 µM
  TGI: > 100 µM
[9]
  TGI: > 100 µM
[10]
  GI50: < 0.01 µM
  TGI: > 100 µM
[11]
  GI50: < 0.01 µM
  TGI: > 100 µM
[58]
  GI50: < 0.0178 µM
  TGI: > 100 µM
[12]
  TGI: > 100 µM
[13]
  GI50: 0.011 µM
  TGI: > 100 µM
[14]
  GI50: > 100 µM
  TGI: > 100 µM
[15]
  GI50: < 0.0111 µM
  TGI: > 100 µM
[16]
  GI50: < 0.01 µM
  TGI: < 0.01 µM
[17]
  GI50: < 0.01 µM
  TGI: > 100 µM
[18]
  GI50: < 0.0207 µM
  TGI: > 100 µM
[19]
  GI50: < 0.01 µM
  TGI: > 100 µM
[20]
  GI50: < 0.01 µM
  TGI: > 100 µM
[21]
  GI50: < 0.014 µM
  TGI: > 100 µM
[22]
  GI50: < 0.0109 µM
[23]
  GI50: < 0.01 µM
  TGI: > 100 µM
[24]
  GI50: < 0.0121 µM
  TGI: > 100 µM
[25]
  TGI: > 100 µM
[26]
  GI50: < 0.01 µM
[27]
  GI50: < 0.0127 µM
  TGI: > 100 µM
[28]
  GI50: < 0.0108 µM
  TGI: > 100 µM
[29]
  GI50: < 0.0168 µM
  TGI: > 100 µM
[30]
  GI50: < 0.01 µM
  TGI: > 100 µM
[31]
  GI50: < 0.01 µM
  TGI: < 0.01 µM
[32]
  GI50: < 0.01 µM
  TGI: < 0.01 µM
[33]
  GI50: < 0.0139 µM
  TGI: 3.84 µM
[34]
  GI50: < 0.0179 µM
  TGI: > 100 µM
[35]
  GI50: < 0.01 µM
  TGI: > 100 µM
[37]
  GI50: < 0.0137 µM
  TGI: 0.288 µM
[38]
  GI50: 1.7 µM
  TGI: > 100 µM
[39]
  GI50: 1.75 µM
  TGI: > 100 µM
[40]
  GI50: > 100 µM
  TGI: > 100 µM
[41]
  GI50: < 0.0132 µM
  TGI: < 0.0209 µM
[42]
  GI50: < 0.0158 µM
  TGI: > 100 µM
[43]
  GI50: < 0.0132 µM
  TGI: > 100 µM
[44]
  GI50: < 0.01 µM
  TGI: > 100 µM
[45]
  GI50: < 0.015 µM
  TGI: > 100 µM
[46]
  GI50: 0.0309 µM
  TGI: > 100 µM
[47]
  GI50: < 0.0109 µM
  TGI: > 100 µM
[48]
  GI50: < 0.01 µM
  TGI: > 100 µM
[49]
  GI50: 1.87 µM
  TGI: > 100 µM
[50]
  GI50: < 0.0267 µM
  TGI: > 100 µM
[51]
  GI50: < 0.01 µM
  TGI: > 100 µM
[52]
  GI50: < 0.0162 µM
  TGI: > 100 µM
[53]
  GI50: < 0.01 µM
  TGI: < 0.0172 µM
[54]
  GI50: < 0.0103 µM
  TGI: > 100 µM
[55]
  GI50: < 0.01 µM
  TGI: < 0.01 µM
[56]
  GI50: < 0.01 µM
  TGI: > 100 µM
[57]
  GI50: < 0.0133 µM
  TGI: > 34.3 µM
